Test results taken from ChEMBL document CHEMBL4673215, “Discovery of DS42450411 as a potent orally active hepcidin production inhibitor: Design and optimization of novel 4-aminopyrimidine derivatives” (Bioorg Med Chem Lett, 2018).
Active and inactive are the calls of the source. The rule behind the calls is not given here.

Columns and labels:
[1] = Inhibition of BMP6-stimulated hepcidin production in human HepG2 cells
[2] = tested on: Mus musculus; experiment: Inhibition of IL6-induced hepcidin production in C57BL/6J mouse serum at 30 mg/kg, po administered 30 mins prior to IL6 challenge and measured after 4 hrs; format: functional, organism-based; conditions: time 270.0 min
[3] = AUC in C57BL/6J mouse at 30 mg/kg, po; format: ADME, organism-based; parameters: dose 30 mg/kg; conditions: in vivo
[4] = Clearance in C57BL/6J mouse at 30 mg/kg, po; format: ADME, organism-based; conditions: in vivo
[5] = Half life in C57BL/6J mouse at 30 mg/kg, po; format: ADME, organism-based; conditions: in vivo
[6] = Tmax in C57BL/6J mouse at 30 mg/kg, po; format: ADME, organism-based; conditions: in vivo
[7] = Protein binding in plasma (unknown origin) assessed as unbound fraction; format: ADME, cell-free
[8] = Cmax in C57BL/6J mouse at 30 mg/kg, po; format: ADME, organism-based; parameters: route oral, dose 30 mg/kg; conditions: in vivo
[9] = Lipophilicity, logD of the compound; format: physicochemical; conditions: octanol/water
[10] = target: T1, Activin receptor type-1 (Homo sapiens) (UniProt Q04771); experiment: Inhibition of ALK2 (unknown origin) at 30 uM
T1 sequence (whole entry): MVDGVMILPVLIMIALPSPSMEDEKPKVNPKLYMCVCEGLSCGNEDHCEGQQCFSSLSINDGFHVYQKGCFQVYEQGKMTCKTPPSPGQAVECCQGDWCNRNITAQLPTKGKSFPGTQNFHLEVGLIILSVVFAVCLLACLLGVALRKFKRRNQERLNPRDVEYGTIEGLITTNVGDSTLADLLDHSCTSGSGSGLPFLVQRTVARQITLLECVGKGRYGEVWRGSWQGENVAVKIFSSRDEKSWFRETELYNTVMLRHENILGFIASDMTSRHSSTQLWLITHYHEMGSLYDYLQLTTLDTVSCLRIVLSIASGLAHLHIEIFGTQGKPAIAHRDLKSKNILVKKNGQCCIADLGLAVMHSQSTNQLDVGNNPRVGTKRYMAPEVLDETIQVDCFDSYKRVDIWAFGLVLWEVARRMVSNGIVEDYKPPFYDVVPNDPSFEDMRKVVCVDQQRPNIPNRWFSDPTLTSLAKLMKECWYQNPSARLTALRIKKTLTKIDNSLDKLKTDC

[11] = target: Dual specificity tyrosine-phosphorylation-regulated kinase 1B (Homo sapiens) (UniProt Q9Y463); experiment: Inhibition of DYRK1b (unknown origin) at 0.5 uM
Chain of Dual specificity tyrosine-phosphorylation-regulated kinase 1B (Homo sapiens) (Q9Y463 whole entry, looked up): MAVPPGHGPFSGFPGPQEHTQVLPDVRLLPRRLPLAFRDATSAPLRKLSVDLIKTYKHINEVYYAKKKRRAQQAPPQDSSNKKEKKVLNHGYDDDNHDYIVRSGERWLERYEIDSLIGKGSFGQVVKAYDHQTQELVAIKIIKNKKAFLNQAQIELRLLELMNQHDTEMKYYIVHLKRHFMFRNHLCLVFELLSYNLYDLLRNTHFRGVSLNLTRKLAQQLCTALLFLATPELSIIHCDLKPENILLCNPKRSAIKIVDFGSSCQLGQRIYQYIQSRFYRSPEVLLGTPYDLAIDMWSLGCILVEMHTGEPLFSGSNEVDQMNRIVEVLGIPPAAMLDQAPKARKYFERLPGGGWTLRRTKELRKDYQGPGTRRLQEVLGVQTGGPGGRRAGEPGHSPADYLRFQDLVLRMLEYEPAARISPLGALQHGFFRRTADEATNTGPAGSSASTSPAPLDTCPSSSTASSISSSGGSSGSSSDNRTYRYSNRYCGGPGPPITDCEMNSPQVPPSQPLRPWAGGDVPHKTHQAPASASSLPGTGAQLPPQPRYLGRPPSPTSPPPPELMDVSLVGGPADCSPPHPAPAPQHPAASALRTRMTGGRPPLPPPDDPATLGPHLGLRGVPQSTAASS

[12] = target: Dual specificity protein kinase CLK2 (Homo sapiens) (UniProt P49760); experiment: Inhibition of CLK2 (unknown origin) at 0.5 uM
Chain of Dual specificity protein kinase CLK2 (Homo sapiens) (P49760 whole entry, looked up): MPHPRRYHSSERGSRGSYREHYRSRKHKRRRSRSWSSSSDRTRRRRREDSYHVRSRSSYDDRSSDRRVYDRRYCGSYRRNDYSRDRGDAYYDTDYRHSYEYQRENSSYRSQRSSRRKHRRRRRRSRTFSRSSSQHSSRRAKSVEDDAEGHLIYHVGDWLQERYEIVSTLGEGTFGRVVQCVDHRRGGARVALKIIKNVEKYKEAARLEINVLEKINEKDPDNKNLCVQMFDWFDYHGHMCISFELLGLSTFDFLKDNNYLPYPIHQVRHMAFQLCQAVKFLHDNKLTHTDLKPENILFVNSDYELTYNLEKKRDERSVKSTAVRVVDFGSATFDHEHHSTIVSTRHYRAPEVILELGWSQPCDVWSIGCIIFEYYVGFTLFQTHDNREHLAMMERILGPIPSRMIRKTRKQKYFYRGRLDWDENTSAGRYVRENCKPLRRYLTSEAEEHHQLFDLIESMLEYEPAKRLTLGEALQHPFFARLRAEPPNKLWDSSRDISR

[13] = target: Dual specificity tyrosine-phosphorylation-regulated kinase 1A (Homo sapiens, UniProt Q13627); experiment: Inhibition of DYRK1a (unknown origin)

SMILES	IC50 [1]	also measured
CC1(C)Cc2cc(OC3CCNC3)ccc2-c2ncnc(N)c21 (configuration not stated)	180 nM	–
C=C(c1ccc2c(c1)CC(C)(C)c1c(N)ncnc1-2)C12CC(C1)C2	120 nM	–
C=C(c1ccc2c(c1)CC(C)(C)c1c(N)ncnc1-2)C1CCNCC1	21 nM	–
CC1(C)Cc2cc(C(=O)C3CCNCC3)ccc2-c2ncnc(N)c21	300 nM	–
C=C(c1ccc2c(c1)CC(C)(C)c1c(N)ncnc1-2)[C@H]1CC[C@H](N(C)C)CC1	110 nM	–
COc1ccc2c(c1)CC(C)(C)c1c(N)n[nH]c1-2	> 30000 nM	–
CC1(C)Cc2cc(OC3CCCNCC3)ccc2-c2ncnc(N)c21 (configuration not stated)	240 nM	–
C=C(c1ccc2c(c1)CC(C)(C)c1c(N)ncnc1-2)[C@H]1CC[C@H](NC)CC1	45 nM	–
Nc1ncnc2c1C1(CCCC1)Cc1ccccc1-2	4200 nM	–
c1ccc2c(c1)CC1(CCCC1)c1cncnc1-2	> 30000 nM	–
Oc1ncnc2c1C1(CCCC1)Cc1ccccc1-2	> 30000 nM	–
CC(=O)N1CCC(Oc2ccc3c(c2)CC(C)(C)c2c(N)ncnc2-3)CC1	760 nM	–
Cc1cccc2c1CC(C)(C)c1c(N)ncnc1-2	5000 nM	–
CC1(C)Cc2cc(OC3CCNCC3)ccc2-c2ncnc(N)c21	230 nM	–
CC1(C)Cc2cc(OCCO)ccc2-c2ncnc(N)c21	1100 nM	–

Continued, in another order:

IC50 [1]	SMILES	also measured
> 5000 nM	COc1ccc2c(c1)CC(C)(C)c1c(N)nc(C)nc1-2	–
810 nM	CC1(C)Cc2cc(C3CCNCC3)ccc2-c2ncnc(N)c21	–
32 nM	C=C(c1ccc2c(c1)CC(C)(C)c1c(N)ncnc1-2)[C@H]1CC[C@H](N)CC1	inhibition [2]: Active; AUC [3]: 2580 ng·h/mL; CL/F [4]: 191 mL/min/kg; half-life [5]: 4.59 h; Tmax [6]: 1.17 h; fraction unbound [7]: 0.065; Cmax [8]: 610 ng/mL; logD [9]: 1.6; inhibition [10]: inactive
490 nM	CC(C)Oc1ccc2c(c1)CC(C)(C)c1c(N)ncnc1-2	–
> 30000 nM	COc1ccc2c(c1)CC(C)(C)c1c-2noc1N	–
11000 nM	CC1(C)Cc2cc(OCC(=O)O)ccc2-c2ncnc(N)c21	–
42 nM	C=C(c1ccc2c(c1)CC(C)(C)c1c(N)ncnc1-2)[C@H]1CCC[C@H](N)C1	–
420 nM	CCOc1ccc2c(c1)CC(C)(C)c1c(N)ncnc1-2	–
600 nM	Cc1ccc2c(c1)CC(C)(C)c1c(N)ncnc1-2	–
4700 nM	Cc1cccc2c1-c1ncnc(N)c1C(C)(C)C2	–
> 30000 nM	CN(C)c1ncnc2c1C1(CCCC1)Cc1ccccc1-2	–
4500 nM	CC1(C)Cc2ccccc2-c2ncnc(N)c21	–
530 nM	COc1ccc2c(c1)CC(C)(C)c1c(N)ncnc1-2	inhibition [11]: Active; inhibition [12]: Active
2800 nM	Cc1ccc2c(c1)-c1ncnc(N)c1C(C)(C)C2	–
73 nM	CC(c1ccc2c(c1)CC(C)(C)c1c(N)ncnc1-2)C1CCNCC1 (racemic)	–
> 30000 nM	CNc1ncnc2c1C1(CCCC1)Cc1ccccc1-2	–
1500 nM	CC1(C)Cc2cc(-c3ccccc3)ccc2-c2ncnc(N)c21	–
> 30000 nM	Nc1ncnc2c1CCc1ccccc1-2	IC50 [13]: 57000 nM
11000 nM	COC(=O)c1ccc2c(c1)CC(C)(C)c1c(N)ncnc1-2	–
31 nM	C=C(c1ccc2c(c1)CC(C)(C)c1c(N)ncnc1-2)[C@H]1C[C@H](N)C1	–
